Literature values as cited in publication PMC6530907 (Biochemistry, 2019).

Molecular target: YbtE
Settings: cited from earlier work

In the case of Nc1ncnc2c1ncn2[C@@H]1O[C@H](COS(=O)(=O)NC(=O)c2ccccc2O)[C@@H](O)[C@H]1O [compound 1, 5´-O-[N-salicylsulfamoyl]adenosine], the Ki is given as 0.7 nM.
